Source: patent US9441263B2, “Ribosomal targets for antibiotic drug discovery” (Cornell University, priority 2011, dated 2016)
Entries after “also recorded” stand apart in the source; their conditions may differ. Starred links: 1 amine or outer side, 2 acyl side, 3 side chain; linkers in the order of their positions; H or OH if unused. Positions of bridges follow the written chain, without caps; N, C: chain ends. Non-standard residues stand in square brackets, D forms with d. Residues, ends and D or L forms follow the SMILES beside them. *: point of attachment. X1 = NC1=N[C@@H]([C@H](N[*:1])C(=O)[*:2])C[C@H](O)N1; ΔAla(Z-3-ureido) = NC(=O)N/C=C(\N)C(=O)O; β3hOrn = NCCC[C@H](N)CC(=O)*; Dap = NC[C@H](N)C(=O)O

Tests used:
[1] = tested on: Cy3-S13 / Cy5-L1 (T202C) ribosome complexes; assay: Single-molecule L1-S13 FRET assay (ribosome conformational states); format: biochemical, E. coli
Description: Generation of Site-Specifically Labeled 30S Subunits and 50S Subunits.
Ribosomal protein S13 was PCR-cloned from E. coli strain K12 genomic DNA into the pPROEX HTb vector with a TEV-cleavable His6-tag and a 12-residue peptide encoding the S6 epitope for the Sfp phosphopantetheinyl transferase reaction (Yin 2006), fused at the N terminus. Following transformation of this plasmid into an E. coli ΔS13 knockout strain (Cukras 2005), cells were cultured and ribosomes were harvested as previously described (Wang 2011). Pure 30S subunits were isolated via sucrose gradient centrifugation in a low magnesium buffer (20 mM HEPES pH 7.5, 50 mM KCl, 10 mM NH4Cl, 0.5 mM EDTA, 6 mM BME, 1 mM MgCl2). 30S subunits containing Sfp-tagged S13 were isolated from this population by cobalt affinity chromatography (Clontech). Subsequently, the Sfp tag was enzymatically labeled and the His6-tag was enzymatically removed in a buffer containing 20 mM HEPES, pH 7.5, 100 mM KCl, 10 mM MgCl, and 6 mM BME. 20 μM N-Sfp-S13 30S subunits, 5 μM TEV protease, 250 μM Cy3-CoA and 25 μM Sfp were incubated for 24 h at 18° C. Sfp enzyme, TEV protease and unbound Cy3-CoA were then removed by filtration over a 100K membrane (Millipore). Prior to 70S complex formation, ribosomes were buffer exchanged into Tris-polymix buffer (Munro 2010c). 50S subunits labeled with Cy5-L1 (T202C) were prepared and purified as previously described (Munro 2010b).
Preparation of L1-S13 FRET Ribosome Complexes with tRNA^fMet or tRNA^Phe in the P Site.
Cy3-S13 30S and Cy5-L1 50S subunits were heat activated at 42° C. for 10 min in Tris-polymix Mg^2+ buffer and ribosomes were then initiated with fMet-tRNA^fMet or NAc-Phe-tRNA^Phe as previously described (Munro 2010c).
Single-Molecule L1-S13 FRET Assay.
All single-molecule FRET experiments were performed at room temperature in Tris-Polymix with 5 mM Mg^2+ buffer as previously described (Wang 2011), where oxygen scavenging and triplet-state quenching systems were employed (Dave 2009). Following surface immobilization (Munro 2007), the ribosome-bound, P-site tRNA was deacylated by incubation with 2 mM puromycin for 10 min at room temperature. The smFRET data were acquired by directly exciting the Cy3 fluorophore at 532 nm (LaserQuantum) while Cy3 and Cy5 intensities were simultaneously recorded in Metamorph (Molecular Devices) with 40 ms integration time. The data were analyzed in MATLAB (MathWorks) and plotted in Origin (OriginLab) as previously described (Munro 2007).

[2] = tested on: A1408G mutant pre-translocation ribosome complexes; assay: Single-molecule translocation assay (EF-G catalyzed), A1408G ribosome complexes; format: biochemical, E. coli
Source text: (§1) Purification of A1408G Ribosomes.
(§2) Wild-type ribosomes and ribosomes bearing A1408G mutation were purified from a Δ7prrn E. coli MG1655 strain (RecA-) for single-molecule translocation and recycling experiments. The A1408G neomycin resistance mutation was introduced into a […] (KanR, SpecR) plasmid containing an rrnB operon (Komoda 2006) using Quickchange II site-directed mutagenesis (Stratagene). Wild-type and A1408G containing pRB102 plasmids (Komoda 2006) were then swapped into a Δ7prrn E. coli MG1655 (pKK3535, AmpR; ptRNA67, SpecR) strain. Tightly-coupled 70S ribosomes were purified from these strains in Tris-polymix buffer as previously described (Munro 2007).
(§3) Single-Molecule Translocation Assay.
(§4) Fluorescence-based, single-molecule translocation assays were carried out as previously described (Munro 2010c) on either wild-type or A1408G mutant pre-translocation ribosome complexes. Experiments were performed in Tris-polymix buffer (pH 7.5, 5 mM Mg(OAc)2) and analyzed as previously described (Munro 2010c; Wang 2011), plotting the fraction of translocating molecules as a function of time.

[3] = tested on: wild-type pre-translocation ribosome complexes; conditions: Feldman 2010; cited from earlier work
[4] = tested on: A1408G mutant ribosomes; assay: Single-molecule FRET tRNA incorporation (aa-tRNA selection) assay, A1408G mutant ribosomes; format: biochemical, E. coli
Source text: as §1, §2
(§5) Single-Molecule FRET tRNA Incorporation Assay.
The process of tRNA selection on the ribosome was monitored using single-molecule FRET by stropped-flow injection of a 10 nM solution of ternary complex (EF-Tu(GTP)·aa-tRNA) containing Phe-tRNA^Phe (Cy5-acp^3U47) to surface-immobilized ribosome complexes containing deacylated tRNA^fMet (Cy3-s^4U8) in the P site as previously described (Geggier 2010). Fluorescence and FRET traces were extracted from video and selected for analysis using automated analysis software implemented in MATLAB (MathWorks) using the segmental k-means algorithm (Qin, 1996). […]

[5] = tested on: wild-type 70S ribosome complexes; assay: Single-molecule ribosome recycling assay (loss of Cy5-labeled L1 fluorescence), wild-type; format: biochemical, E. coli; conditions: wild-type ribosomes; neomycin 0.1-100 μM
Source text: (§6) As described in the examples, this invention provides single-molecule assays for ribosome recycling which comprises surface-immobilizing a ribosome labeled on the 50S subunit in the presence of tRNA, RRF and EF-G under translation conditions; and monitoring changes in the signal from the label, wherein a change in the signal indicates recycling or lack thereof. For example, this assay can be conducted in solution or using smFRET like imaging techniques (following fluorescence decay), with the label on the ribosome being a fluorophore.
(§7) Single-Molecule Fluorescence Experiments.
(§8) All single-molecule fluorescence experiments were performed at room temperature in an MES-Polymix buffer that resembled the crystallization condition (50 mM MES, pH 6.5, 5.0 mM MgCl2, 350 mM NH4Cl, 5.0 mM putrescine, 5.0 mM spermidine, 5 mM (3-mercaptoethanol and 0.5 mM EDTA). Oxygen scavenging and triplet-state quenching systems used were as previously described (Dave 2009). The smFRET data were acquired with Metamorph (Molecular Device), and analyzed in MATLAB (Mathwork) and QuB (www.qub.buffalo.edu) as previously described (Munro 2010a,b). Subunit release was monitored by directly exciting the Cy5 fluorophore within surface-immobilized ribosome complexes (Coherent) at 10 mW laser power. […] Changes in fluorescence intensity were analyzed and plotted in Origin (OriginLab).

[6] = tested on: wild-type ribosomes; assay: Single-molecule FRET tRNA incorporation (aa-tRNA selection) assay, wild-type ribosomes; format: biochemical, E. coli
Description: as §5
The process of tRNA selection on the ribosome was monitored using single-molecule FRET by stropped-flow injection of a 10 nM solution of ternary complex (EF-Tu(GTP)·aa-tRNA) containing Phe-tRNA^Phe (Cy5-acp^3U47) to surface-immobilized ribosome complexes containing deacylated tRNA^fMet (Cy3-s^4U8) in the P site as previously described (Geggier 2010). Fluorescence and FRET traces were extracted from video and selected for analysis using automated analysis software implemented in MATLAB (MathWorks) using the segmental k-means algorithm (Qin, 1996). Complete accommodation of Phe-tRNA^Phe into the A site was marked by the first observation of a 400 ms dwell in a high ([…]) FRET state, structurally assigned to the “classical” pre-translocation complex configuration through previous investigations (Geggier 2010). Individual experiments, in which approximately 100 accommodation events were obtained, were performed in triplicate. The mean extent of accommodation and standard deviations are plotted as a function of time. Wild type and mutant ribosomes for these experiments were purified as previously described (Feldman 2010).

[7] = tested on: wild-type pre-translocation ribosome complexes; assay: Single-molecule translocation assay (EF-G catalyzed), wild-type ribosome complexes; format: biochemical, E. coli; conditions: wild-type ribosomes
Description: as §3, §4

[8] = tested on: A1408G mutant ribosomes; assay: Single-molecule ribosome recycling assay (loss of Cy5-labeled L1 fluorescence), A1408G; format: biochemical, E. coli; conditions: neomycin 0.1-100 μM
Source text: as §6
Purification of A1408G Ribosomes. […]
as §7, §8

[9] = deacylated tRNA^fMet in the P site, no A-site tRNA, EF-G with GDPNP

## NCCC[C@H](N)CC(=O)N[C@H]1CNC(=O)[C@H]([C@H]2C[C@H](O)NC(N)=N2)NC(=O)/C(=C/NC(N)=O)NC(=O)[C@H](CO)NC(=O)[C@H](CO)NC1=O [viomycin] (β3hOrn-[Dap]SS[ΔAla(Z-3-ureido)][X1]; lactam 1-C)
[1]; [9]
  FRET state stabilized (L1-S13): high-FRET state was also favored; also recorded: rotated state

## EF-G: GTPase elongation factor-G
[1]; [9]
  FRET state stabilized (L1-S13): high-FRET state was stabilized; also recorded: high-FRET, rotated state

## RRF: ribosome recycling factor, purified from E. coli, C-terminal hexa-histidine tagged
[1]; [9]
  FRET state stabilized (L1-S13): high-FRET state was stabilized; also recorded: high-FRET rotated state

## neomycin
[2]; A1408G mutant background, neomycin 0.01-100 μM, normalized to no drug
  EF-G catalyzed translocation: inhibits EF-G catalyzed translocation in a concentration dependent manner
[2]; A1408G ribosomes
  concentration at which substrate translocation is blocked: above 1 μM
[3]
  neomycin concentration inhibiting translocation as potently as viomycin: higher than 100 nM
[4]; 100 nM neomycin
  miscoding effects / incorporation of near-cognate tRNA: reduced; also recorded: almost entirely suppressed
[4]; 20 μM neomycin
  selection (incorporation) of cognate and near-cognate tRNA: both reduced; also recorded: Inhibition persisted
[5]
  ribosome recycling mediated by RRF and EF-G: inhibited ribosome recycling
[1]; figure title, tRNA^fMet or tRNA^Phe in the P site
  ribosome conformation stabilized (L1-S13 FRET): stabilizes an intermediate conformation of the ribosome
[1]; higher neomycin concentrations (>1 μM), deacylated tRNA^fMet in the P site
  FRET state stabilized (L1-S13): stabilized a ribosome configuration exhibiting an intermediate FRET value
[1]; low neomycin concentrations (<100 nM), deacylated tRNA^fMet in the P site
  FRET state favored (L1-S13): low-FRET state was favored
[6]; 100 nM neomycin, cognate (UUC) codon
  selection of cognate tRNA: negligible effects
[6]; 100 nM neomycin, near-cognate (UCU) codon
  rates of near-cognate aa-tRNA accommodation: substantially increased
[6]; 20 μM neomycin
  selection of both cognate and near-cognate tRNA: significantly attenuated
[7]
  concentration at which substrate translocation is blocked: above 1 μM
[8]
  ribosome recycling catalyzed by RRF, EF-G and GTP: inhibits the process of ribosome recycling catalyzed by RRF, EF-G and GTP in a concentration-dependent manner; also recorded: inhibited ribosome recycling
